Results as given in paper doi:10.1101/2023.11.24.568596v1 (biorxiv, 2023).

Legend:
Conditions in all cases: binder
NEK2 = target: T1, NEK2 (Homo sapiens, UniProt P51955)
T1 sequence (P51955 1-445): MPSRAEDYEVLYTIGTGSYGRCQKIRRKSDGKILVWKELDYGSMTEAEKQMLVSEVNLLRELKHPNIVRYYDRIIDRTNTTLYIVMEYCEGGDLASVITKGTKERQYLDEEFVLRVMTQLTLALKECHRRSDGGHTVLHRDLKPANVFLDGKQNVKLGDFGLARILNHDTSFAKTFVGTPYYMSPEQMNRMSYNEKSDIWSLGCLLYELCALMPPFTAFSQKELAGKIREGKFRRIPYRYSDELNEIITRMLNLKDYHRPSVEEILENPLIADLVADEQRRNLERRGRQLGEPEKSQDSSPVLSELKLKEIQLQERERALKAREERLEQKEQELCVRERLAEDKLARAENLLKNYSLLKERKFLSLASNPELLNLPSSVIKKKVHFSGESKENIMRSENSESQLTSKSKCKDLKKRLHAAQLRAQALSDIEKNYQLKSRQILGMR

NDR2 = NDR2 (Homo sapiens, UniProt Q9Y2H1)
MSK1b = MSK1b (Homo sapiens, UniProt O75582)
DAPK1 = DAPK1 (Homo sapiens, UniProt P53355)
Haspin = target: T2, Haspin (Homo sapiens, UniProt Q8TF76)
T2 sequence (Q8TF76 1-798): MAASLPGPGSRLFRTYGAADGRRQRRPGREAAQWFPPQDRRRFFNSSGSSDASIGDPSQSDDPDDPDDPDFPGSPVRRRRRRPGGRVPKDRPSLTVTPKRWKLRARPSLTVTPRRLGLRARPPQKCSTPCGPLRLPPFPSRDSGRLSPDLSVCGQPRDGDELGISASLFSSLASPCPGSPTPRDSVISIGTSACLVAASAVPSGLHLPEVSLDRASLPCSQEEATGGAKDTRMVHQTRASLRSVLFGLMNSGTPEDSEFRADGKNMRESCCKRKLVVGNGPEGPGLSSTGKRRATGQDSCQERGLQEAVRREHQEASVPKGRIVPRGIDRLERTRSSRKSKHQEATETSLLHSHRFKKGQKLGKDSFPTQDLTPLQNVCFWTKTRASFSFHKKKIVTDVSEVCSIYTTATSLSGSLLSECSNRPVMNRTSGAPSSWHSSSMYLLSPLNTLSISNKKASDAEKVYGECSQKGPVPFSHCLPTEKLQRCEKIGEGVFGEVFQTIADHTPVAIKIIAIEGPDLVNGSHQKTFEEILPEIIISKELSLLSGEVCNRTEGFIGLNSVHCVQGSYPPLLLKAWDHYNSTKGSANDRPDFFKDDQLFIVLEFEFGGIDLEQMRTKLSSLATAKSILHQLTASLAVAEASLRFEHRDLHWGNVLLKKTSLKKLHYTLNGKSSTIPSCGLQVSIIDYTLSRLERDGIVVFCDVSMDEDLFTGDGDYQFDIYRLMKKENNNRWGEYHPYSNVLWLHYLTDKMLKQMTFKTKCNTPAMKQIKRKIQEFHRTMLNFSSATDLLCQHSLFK

CK1d = CK1d (Homo sapiens, UniProt P48730)
BMX = target: T3, BMX (Homo sapiens, UniProt P51813)
T3 sequence (P51813 1-675): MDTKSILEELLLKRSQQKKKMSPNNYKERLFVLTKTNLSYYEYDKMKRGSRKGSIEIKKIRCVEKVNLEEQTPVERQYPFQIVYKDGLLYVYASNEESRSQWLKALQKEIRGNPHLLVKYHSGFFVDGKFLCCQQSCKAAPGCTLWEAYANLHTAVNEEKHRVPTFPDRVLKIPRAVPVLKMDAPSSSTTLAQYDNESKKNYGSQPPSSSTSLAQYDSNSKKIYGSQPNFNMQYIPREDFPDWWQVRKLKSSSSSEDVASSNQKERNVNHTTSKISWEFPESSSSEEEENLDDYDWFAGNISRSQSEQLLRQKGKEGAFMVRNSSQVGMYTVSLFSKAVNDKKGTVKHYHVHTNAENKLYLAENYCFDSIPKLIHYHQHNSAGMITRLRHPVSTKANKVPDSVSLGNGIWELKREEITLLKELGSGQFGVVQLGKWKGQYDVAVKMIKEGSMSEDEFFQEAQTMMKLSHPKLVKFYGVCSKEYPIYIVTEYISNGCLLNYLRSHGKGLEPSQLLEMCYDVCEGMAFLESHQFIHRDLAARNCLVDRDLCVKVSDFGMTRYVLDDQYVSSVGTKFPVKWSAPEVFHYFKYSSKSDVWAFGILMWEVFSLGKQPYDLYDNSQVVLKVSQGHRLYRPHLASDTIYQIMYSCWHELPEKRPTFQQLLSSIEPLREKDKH

FLT1 = FLT1 (Homo sapiens, UniProt P17948)
EphA5 = EphA5 (Homo sapiens, UniProt P54756)
MAPKAPK2 = MAPKAPK2 (Homo sapiens, UniProt P49137)
MAPKAPK2, sequence (P49137 whole entry): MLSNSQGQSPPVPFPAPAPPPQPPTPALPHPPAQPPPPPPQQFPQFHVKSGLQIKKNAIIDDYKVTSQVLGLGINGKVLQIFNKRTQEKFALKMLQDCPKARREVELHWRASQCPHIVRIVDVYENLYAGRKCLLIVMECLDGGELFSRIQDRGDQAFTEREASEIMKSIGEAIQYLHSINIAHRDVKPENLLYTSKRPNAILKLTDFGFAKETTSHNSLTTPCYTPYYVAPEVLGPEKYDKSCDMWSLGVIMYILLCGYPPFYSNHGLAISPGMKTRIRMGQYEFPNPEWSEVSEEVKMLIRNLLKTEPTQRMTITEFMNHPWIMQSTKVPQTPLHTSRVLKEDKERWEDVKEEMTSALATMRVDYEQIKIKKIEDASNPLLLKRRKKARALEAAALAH

CK1d, sequence (P48730 whole entry): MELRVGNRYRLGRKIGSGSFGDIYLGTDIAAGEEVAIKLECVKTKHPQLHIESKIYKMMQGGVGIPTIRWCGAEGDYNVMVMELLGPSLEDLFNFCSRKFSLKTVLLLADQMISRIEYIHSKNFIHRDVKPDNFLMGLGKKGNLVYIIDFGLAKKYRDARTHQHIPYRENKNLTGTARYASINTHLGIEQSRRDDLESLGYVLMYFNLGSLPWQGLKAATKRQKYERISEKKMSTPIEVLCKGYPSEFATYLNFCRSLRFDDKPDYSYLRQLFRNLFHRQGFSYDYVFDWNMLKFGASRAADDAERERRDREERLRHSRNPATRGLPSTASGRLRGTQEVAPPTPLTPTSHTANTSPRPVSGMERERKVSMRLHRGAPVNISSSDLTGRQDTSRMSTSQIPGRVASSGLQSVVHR
EphA5, sequence (P54756 whole entry): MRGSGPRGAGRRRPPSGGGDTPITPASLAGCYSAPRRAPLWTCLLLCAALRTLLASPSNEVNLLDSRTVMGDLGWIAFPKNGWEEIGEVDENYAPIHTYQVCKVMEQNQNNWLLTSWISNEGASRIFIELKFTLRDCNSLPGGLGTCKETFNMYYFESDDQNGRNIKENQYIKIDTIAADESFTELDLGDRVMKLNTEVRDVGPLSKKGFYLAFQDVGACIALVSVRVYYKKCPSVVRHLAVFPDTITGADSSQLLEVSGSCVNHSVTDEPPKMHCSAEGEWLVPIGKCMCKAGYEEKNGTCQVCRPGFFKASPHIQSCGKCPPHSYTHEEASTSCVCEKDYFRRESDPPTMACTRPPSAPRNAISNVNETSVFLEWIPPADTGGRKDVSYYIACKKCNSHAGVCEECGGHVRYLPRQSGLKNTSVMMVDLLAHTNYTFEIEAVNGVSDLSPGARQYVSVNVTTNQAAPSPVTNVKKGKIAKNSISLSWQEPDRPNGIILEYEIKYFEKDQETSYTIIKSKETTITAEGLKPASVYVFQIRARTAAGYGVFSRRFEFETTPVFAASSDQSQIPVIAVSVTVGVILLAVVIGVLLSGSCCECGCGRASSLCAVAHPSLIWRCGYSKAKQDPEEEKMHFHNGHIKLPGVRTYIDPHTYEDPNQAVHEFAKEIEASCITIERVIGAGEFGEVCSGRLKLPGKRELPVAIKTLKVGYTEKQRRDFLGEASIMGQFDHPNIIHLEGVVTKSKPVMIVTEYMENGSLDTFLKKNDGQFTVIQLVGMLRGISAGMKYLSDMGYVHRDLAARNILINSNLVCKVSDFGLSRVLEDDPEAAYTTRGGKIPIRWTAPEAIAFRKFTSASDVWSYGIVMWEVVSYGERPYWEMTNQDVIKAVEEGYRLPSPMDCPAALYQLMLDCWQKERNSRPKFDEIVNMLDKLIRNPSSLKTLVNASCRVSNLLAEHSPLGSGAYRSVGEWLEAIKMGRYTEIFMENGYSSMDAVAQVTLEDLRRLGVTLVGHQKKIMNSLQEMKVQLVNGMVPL
FLT1, sequence (P17948 whole entry): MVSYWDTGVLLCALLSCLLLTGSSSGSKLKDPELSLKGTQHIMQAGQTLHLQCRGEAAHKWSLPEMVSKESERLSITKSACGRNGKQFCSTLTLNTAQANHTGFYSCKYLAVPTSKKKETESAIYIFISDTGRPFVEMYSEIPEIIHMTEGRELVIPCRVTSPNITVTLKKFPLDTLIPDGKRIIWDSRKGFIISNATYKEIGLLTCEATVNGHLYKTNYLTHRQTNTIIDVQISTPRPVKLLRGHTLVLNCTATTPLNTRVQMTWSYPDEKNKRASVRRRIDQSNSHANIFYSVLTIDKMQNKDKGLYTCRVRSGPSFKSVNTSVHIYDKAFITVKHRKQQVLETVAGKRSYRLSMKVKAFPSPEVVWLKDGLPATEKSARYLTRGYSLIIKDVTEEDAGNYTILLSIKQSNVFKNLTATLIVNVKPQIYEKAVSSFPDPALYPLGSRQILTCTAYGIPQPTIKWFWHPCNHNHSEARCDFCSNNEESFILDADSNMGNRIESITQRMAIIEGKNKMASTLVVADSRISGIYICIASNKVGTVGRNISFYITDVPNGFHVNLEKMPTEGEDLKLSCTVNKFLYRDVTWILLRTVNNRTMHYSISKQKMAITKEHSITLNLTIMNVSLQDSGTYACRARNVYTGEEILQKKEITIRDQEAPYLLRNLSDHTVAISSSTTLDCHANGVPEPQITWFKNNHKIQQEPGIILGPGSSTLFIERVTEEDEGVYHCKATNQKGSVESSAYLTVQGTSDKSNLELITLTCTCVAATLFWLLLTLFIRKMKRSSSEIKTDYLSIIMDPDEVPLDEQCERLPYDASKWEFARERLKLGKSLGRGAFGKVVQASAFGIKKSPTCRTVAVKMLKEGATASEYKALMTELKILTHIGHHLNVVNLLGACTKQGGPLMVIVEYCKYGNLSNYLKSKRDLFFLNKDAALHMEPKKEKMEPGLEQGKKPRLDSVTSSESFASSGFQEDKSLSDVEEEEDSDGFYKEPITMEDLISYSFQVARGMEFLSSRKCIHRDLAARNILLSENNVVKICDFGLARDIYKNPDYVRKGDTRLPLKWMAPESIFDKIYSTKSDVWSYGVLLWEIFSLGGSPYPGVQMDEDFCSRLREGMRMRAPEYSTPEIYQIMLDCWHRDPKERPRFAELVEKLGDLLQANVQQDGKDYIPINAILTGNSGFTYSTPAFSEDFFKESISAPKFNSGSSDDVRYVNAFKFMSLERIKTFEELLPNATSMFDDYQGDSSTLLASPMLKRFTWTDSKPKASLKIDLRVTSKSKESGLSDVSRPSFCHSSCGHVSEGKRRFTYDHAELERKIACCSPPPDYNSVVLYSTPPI
DAPK1, sequence (P53355 whole entry): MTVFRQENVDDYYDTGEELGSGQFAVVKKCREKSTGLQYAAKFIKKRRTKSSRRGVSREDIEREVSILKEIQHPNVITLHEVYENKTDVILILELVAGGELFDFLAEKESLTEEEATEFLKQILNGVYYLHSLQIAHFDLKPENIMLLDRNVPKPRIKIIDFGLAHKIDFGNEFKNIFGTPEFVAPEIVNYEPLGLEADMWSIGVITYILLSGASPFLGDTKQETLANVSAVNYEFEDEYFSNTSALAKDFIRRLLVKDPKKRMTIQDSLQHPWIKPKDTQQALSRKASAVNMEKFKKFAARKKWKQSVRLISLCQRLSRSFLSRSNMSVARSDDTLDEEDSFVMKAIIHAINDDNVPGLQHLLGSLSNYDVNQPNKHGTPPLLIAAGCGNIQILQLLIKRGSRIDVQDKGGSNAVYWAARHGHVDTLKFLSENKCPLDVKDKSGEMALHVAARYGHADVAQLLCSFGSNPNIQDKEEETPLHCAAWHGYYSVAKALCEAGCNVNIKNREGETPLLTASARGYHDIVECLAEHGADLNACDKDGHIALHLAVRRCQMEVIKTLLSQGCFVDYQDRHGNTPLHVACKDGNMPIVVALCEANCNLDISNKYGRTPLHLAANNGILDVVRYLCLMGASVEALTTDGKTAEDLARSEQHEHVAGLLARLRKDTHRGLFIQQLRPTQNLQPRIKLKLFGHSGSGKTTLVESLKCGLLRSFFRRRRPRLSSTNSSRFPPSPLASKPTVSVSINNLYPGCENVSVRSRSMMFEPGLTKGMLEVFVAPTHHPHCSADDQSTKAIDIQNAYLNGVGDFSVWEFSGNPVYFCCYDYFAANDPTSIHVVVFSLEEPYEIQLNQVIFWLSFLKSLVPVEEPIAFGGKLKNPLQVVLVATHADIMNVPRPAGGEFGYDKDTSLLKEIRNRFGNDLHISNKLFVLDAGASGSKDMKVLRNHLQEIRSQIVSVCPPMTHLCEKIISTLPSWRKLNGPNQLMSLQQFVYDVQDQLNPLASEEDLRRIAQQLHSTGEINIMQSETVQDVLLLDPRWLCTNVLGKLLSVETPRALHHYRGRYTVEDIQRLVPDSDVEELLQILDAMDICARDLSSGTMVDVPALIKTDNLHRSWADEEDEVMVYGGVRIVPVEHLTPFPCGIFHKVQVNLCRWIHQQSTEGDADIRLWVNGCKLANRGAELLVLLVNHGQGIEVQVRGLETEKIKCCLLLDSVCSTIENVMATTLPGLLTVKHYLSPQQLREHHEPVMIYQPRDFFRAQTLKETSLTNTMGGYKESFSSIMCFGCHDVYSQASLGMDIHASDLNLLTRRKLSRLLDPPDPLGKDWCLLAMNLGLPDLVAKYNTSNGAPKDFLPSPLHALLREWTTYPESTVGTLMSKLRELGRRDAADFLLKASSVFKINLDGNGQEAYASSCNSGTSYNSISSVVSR
NDR2, sequence (Q9Y2H1 whole entry): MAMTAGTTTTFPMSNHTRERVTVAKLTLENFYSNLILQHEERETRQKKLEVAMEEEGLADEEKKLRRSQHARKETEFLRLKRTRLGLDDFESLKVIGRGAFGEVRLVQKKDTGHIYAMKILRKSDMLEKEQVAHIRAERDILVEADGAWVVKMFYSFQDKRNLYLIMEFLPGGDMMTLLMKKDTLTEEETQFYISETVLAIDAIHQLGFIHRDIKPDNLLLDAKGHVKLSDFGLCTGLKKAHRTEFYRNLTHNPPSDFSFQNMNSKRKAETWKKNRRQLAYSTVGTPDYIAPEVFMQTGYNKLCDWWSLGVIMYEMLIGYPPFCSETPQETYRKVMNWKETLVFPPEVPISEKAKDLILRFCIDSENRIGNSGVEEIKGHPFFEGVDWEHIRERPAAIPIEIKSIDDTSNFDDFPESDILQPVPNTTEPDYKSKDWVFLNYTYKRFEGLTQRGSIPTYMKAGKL

SMILES: Cc1cccc(-c2ccc(-c3cc4cnc(NCCCc5ccc(N)cc5)nc4n(CCCCN)c3=O)c(Cl)c2)n1 [compound 25, 8-(4-Aminobutyl)-2-((3-(4-aminophenyl)propyl)amino)-6-(2-chloro-4-(6-methylpyridin-2-yl)phenyl)pyrido[2,3-d]pyrimidin-7(8H)-one]
- ΔTm 25 (NEK2): 8.8 °C
- ΔTm 25 (NDR2): 6.7 °C
- ΔTm 25 (MSK1b): 1.4 °C
- ΔTm 25 (DAPK1): -1.0 °C
- ΔTm 25 (Haspin): 1.9 °C
- ΔTm 25 (CK1d): 3.1 °C
- ΔTm 25 (BMX): 3.1 °C
- ΔTm 25 (FLT1): 3.5 °C
- ΔTm 25 (EphA5): 3.2 °C
- ΔTm 25 (MAPKAPK2): -0.6 °C

SMILES: Cc1cccc(-c2ccc(-c3cc4cnc(NC(CO)CO)nc4n(CCCCN)c3=O)c(Cl)c2)n1 [compound 24, 8-(4-Aminobutyl)-6-(2-chloro-4-(6-methylpyridin-2-yl)phenyl)-2-((1,3-dihydroxypropan-2-yl)amino)pyrido[2,3-d]pyrimidin-7(8H)-one]
- ΔTm MR24 (24) (NEK2): 5.6 °C
- ΔTm MR24 (24) (NDR2): 2.6 °C
- ΔTm MR24 (24) (MSK1b): -1.0 °C
- ΔTm MR24 (24) (DAPK1): -0.8 °C
- ΔTm MR24 (24) (Haspin): -1.4 °C
- ΔTm MR24 (24) (CK1d): 1.2 °C
- ΔTm MR24 (24) (BMX): 0.6 °C
- ΔTm MR24 (24) (FLT1): 1.0 °C
- ΔTm MR24 (24) (EphA5): -0.4 °C
- ΔTm MR24 (24) (MAPKAPK2): -0.1 °C

SMILES: CNc1ncc2cc(-c3ccc(-c4cccc(C)n4)cc3Cl)c(=O)n(C[C@H]3CC[C@H](N)CC3)c2n1 [compound 23, 23]
- ΔTm 23 (NEK2): 6.9 °C
- ΔTm 23 (NDR2): 3.5 °C
- ΔTm 23 (MSK1b): 6.4 °C
- ΔTm 23 (DAPK1): -0.4 °C
- ΔTm 23 (Haspin): 1.5 °C
- ΔTm 23 (CK1d): 2.3 °C
- ΔTm 23 (BMX): 3.4 °C
- ΔTm 23 (FLT1): 4.9 °C
- ΔTm 23 (EphA5): 4.0 °C
- ΔTm 23 (MAPKAPK2): -0.9 °C

SMILES: Cc1cccc(-c2ccc(-c3cc4cnc(NCCCN5CCOCC5)nc4n(CCCCN)c3=O)c(Cl)c2)n1 [compound 26, MR26]
- ΔTm MR26 (26) (NEK2): 5.9 °C
- ΔTm MR26 (26) (NDR2): 5.2 °C
- ΔTm MR26 (26) (MSK1b): -0.4 °C
- ΔTm MR26 (26) (DAPK1): -0.7 °C
- ΔTm MR26 (26) (Haspin): -1.5 °C
- ΔTm MR26 (26) (CK1d): 1.9 °C
- ΔTm MR26 (26) (BMX): 2.4 °C
- ΔTm MR26 (26) (FLT1): 2.7 °C
- ΔTm MR26 (26) (EphA5): 3.5 °C
- ΔTm MR26 (26) (MAPKAPK2): -0.2 °C

SMILES: CNc1ncc2cc(-c3ccc(-c4cccc(C)n4)cc3Cl)c(=O)n(CCC3CCNCC3)c2n1 [compound 22, 6-(2-Chloro-4-(6-methylpyridin-2-yl)phenyl)-2-(methylamino)-8-(2-(piperidin-4-yl)ethyl)pyrido[2,3-d]pyrimidin-7(8H)-one]
- ΔTm 22 (NEK2): 6.6 °C
- ΔTm 22 (NDR2): 5.1 °C
- ΔTm 22 (MSK1b): 0.1 °C
- ΔTm 22 (DAPK1): -0.8 °C
- ΔTm 22 (Haspin): -1.2 °C
- ΔTm 22 (CK1d): 2.1 °C
- ΔTm 22 (BMX): 4.1 °C
- ΔTm 22 (FLT1): 2.6 °C
- ΔTm 22 (EphA5): 4.1 °C
- ΔTm 22 (MAPKAPK2): -0.1 °C

SMILES: CNc1ncc2cc(-c3ccc(-c4cccc(C)n4)cc3Cl)c(=O)n(CCCCN)c2n1 [compound 20, MRLW5]
- ΔTm MRLW5 (20) (NEK2): 4.6 °C
- ΔTm MRLW5 (20) (NDR2): 4.6 °C
- ΔTm MRLW5 (20) (MSK1b): 2.9 °C
- ΔTm MRLW5 (20) (DAPK1): -0.8 °C
- ΔTm MRLW5 (20) (Haspin): -0.4 °C
- ΔTm MRLW5 (20) (CK1d): 0.8 °C
- ΔTm MRLW5 (20) (BMX): 3.1 °C
- ΔTm MRLW5 (20) (FLT1): 2.2 °C
- ΔTm MRLW5 (20) (EphA5): 3.3 °C
- ΔTm MRLW5 (20) (MAPKAPK2): 0.0 °C
